US11571423B2, “Small molecule modulators of human sting” (Curadev Pharma Limited, priority 2017, dated 2023)

Biological target: hSTING(R232) (Homo sapiens, UniProt Q86WV6, H232R)
Test: Luciferase reporter assay in HEK293T-hSTING-Luciferase cells, R232 (wild type) human STING
Assay type: cell-based
Details: 20 hr stimulation, read-out: R232 human activity (EC50 range)
How it was run: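 Clonal HEK293T cells stably expressing STING from a pUNO-1 plasmid plus an ISRE/ISG54-driven secreted luciferase reporter; 5×10^5 cells stimulated with compound for 20 hr. Supernatant luciferase read by luminescence, giving fold-induction over baseline and EC50.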

Chain of hSTING(R232) (Q86WV6 whole entry H232R): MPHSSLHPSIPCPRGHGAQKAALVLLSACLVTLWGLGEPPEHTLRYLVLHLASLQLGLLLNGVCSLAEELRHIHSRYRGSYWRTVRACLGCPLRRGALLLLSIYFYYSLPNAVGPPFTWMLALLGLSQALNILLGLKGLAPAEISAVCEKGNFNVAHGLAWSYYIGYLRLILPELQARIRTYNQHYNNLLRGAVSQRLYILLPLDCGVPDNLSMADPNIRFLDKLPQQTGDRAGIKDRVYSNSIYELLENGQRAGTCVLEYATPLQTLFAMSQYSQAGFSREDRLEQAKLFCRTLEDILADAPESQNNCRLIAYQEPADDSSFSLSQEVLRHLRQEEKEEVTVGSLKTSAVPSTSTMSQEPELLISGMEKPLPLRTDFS

SMILES | EC50 [nM]
CC1c2ccc(C(=O)NCc3c(F)cc(F)cc3F)cc2N(Cc2c(F)cccc2OC(F)F)C(=O)N1C (stereo not drawn) [Example 216, 1-(2-(difluoromethoxy)-6-fluorobenzyl)-3,4-dimethyl-2-oxo-N-(2,4,6-trifluorobenzyl)-1,2,3,4-tetrahydroquinazoline-7-carboxamide] | < 1000
COc1ccc(CN2C(=O)N(C)C(C)c3ccc(C(=O)NCc4c(F)cc(F)cc4F)cc32)c(F)c1 (stereo not drawn) [Example 217, 1-(2-fluoro-4-methoxybenzyl)-3,4-dimethyl-2-oxo-N-(2,4,6-trifluorobenzyl)-1,2,3,4-tetrahydroquinazoline-7-carboxamide] | < 1000
CC1c2ccc(C(=O)NCc3c(F)cc(F)cc3F)cc2N(Cc2ccc(F)cc2)C(=O)N1C (stereo not drawn) [Example 218, 1-(4-fluorobenzyl)-3,4-dimethyl-2-oxo-N-(2,4,6-trifluorobenzyl)-1,2,3,4-tetrahydroquinazoline-7-carboxamide] | < 1000
CC1c2ccc(C(=O)NCc3c(F)cc(F)cc3F)cc2N(Cc2ccc(Cl)cc2F)C(=O)N1C (stereo not drawn) [Example 219, 1-(4-chloro-2-fluorobenzyl)-3,4-dimethyl-2-oxo-N-(2,4,6-trifluorobenzyl)-1,2,3,4-tetrahydroquinazoline-7-carboxamide] | < 1000
Cc1ccc(F)c(CN2C(=O)N(C)C(C)c3ccc(C(=O)NCc4c(F)cc(F)cc4F)cc32)c1Br (stereo not drawn) [Example 220, 1-(2-bromo-6-fluoro-3-methylbenzyl)-3,4-dimethyl-2-oxo-N-(2,4,6-trifluorobenzyl)-1,2,3,4-tetrahydroquinazoline-7-carboxamide] | < 1000
CC1c2ccc(C(=O)NCc3c(F)cc(F)cc3F)cc2N(Cc2ccc(F)cc2Cl)C(=O)N1C (stereo not drawn) [Example 221, 1-(2-chloro-4-fluorobenzyl)-3,4-dimethyl-2-oxo-N-(2,4,6-trifluorobenzyl)-1,2,3,4-tetrahydroquinazoline-7-carboxamide] | < 1000

More lines, now with the values ahead:

EC50 [nM] | SMILES
< 1000 | CC1c2ccc(C(=O)NCc3c(F)cc(F)cc3F)cc2N(Cc2c(F)cc(Cl)cc2F)C(=O)N1C (stereo not drawn) [Example 222, 1-(4-chloro-2,6-difluorobenzyl)-3,4-dimethyl-2-oxo-N-(2,4,6-trifluorobenzyl)-1,2,3,4-tetrahydroquinazoline-7-carboxamide]
1000 to 10000 | Cc1cc(CN2C(=O)N(C)C(C)c3ccc(C(=O)NCc4cc5cc(F)ccc5o4)cc32)n(C)n1 (stereo not drawn) [Example 223, 1-((1,3-dimethyl-1H-pyrazol-5-yl)methyl)-N-((5-fluorobenzofuran-2-yl)methyl)-3,4-dimethyl-2-oxo-1,2,3,4-tetrahydroquinazoline-7-carboxamide]
< 1000 | Cc1nn(C)c(CN2C(=O)N(C)C(C)c3ccc(C(=O)NCc4cc5cc(F)ccc5o4)cc32)c1F (stereo not drawn) [Example 224, 1-((4-fluoro-1,3-dimethyl-1H-pyrazol-5-yl)methyl)-N-((5-fluorobenzofuran-2-yl)methyl)-3,4-dimethyl-2-oxo-1,2,3,4-tetrahydroquinazoline-7-carboxamide]
1000 to 10000 | CC1c2ccc(C(=O)NCc3c(F)cc(F)cc3F)cc2N(Cc2c(F)cccc2NS(C)(=O)=O)C(=O)N1C (stereo not drawn) [Example 225, 1-(2-fluoro-6-(methylsulfonamido)benzyl)-3,4-dimethyl-2-oxo-N-(2,4,6-trifluorobenzyl)-1,2,3,4-tetrahydroquinazoline-7-carboxamide]
1000 to 10000 | CC(=O)Nc1cccc(F)c1CN1C(=O)N(C)C(C)c2ccc(C(=O)NCc3c(F)cc(F)cc3F)cc21 (stereo not drawn) [Example 226, 1-(2-acetamido-6-fluorobenzyl)-3,4-dimethyl-2-oxo-N-(2,4,6-trifluorobenzyl)-1,2,3,4-tetrahydroquinazoline-7-carboxamide]
> 10000 | CC1c2ccc(C(=O)NCc3c(F)cc(F)cc3F)cc2N(Cc2ccc(OCC(=O)O)cc2F)C(=O)N1C (stereo not drawn) [Example 228, 2-(4-((3,4-dimethyl-2-oxo-7-((2,4,6-trifluorobenzyl)carbamoyl)-3,4-dihydroquinazolin-1(2H)-yl)methyl)-3-fluorophenoxy)acetic acid]
